{"source": "patent US20020182736A1", "about": "“Methods to measure lipid antioxidant activity” (TRUSTEES OF TUFTS COLLEGE, priority 2001, published 2002)", "key": {"[1]": {"conditions": "37° C; cited from earlier work"}, "[2]": {"test_system": "lipid plasma compartment oxidation", "assay": "Lipid plasma compartment oxidation, BODIPY 581/591 green fluorescence", "conditions": "20 mM AAPH", "quoted_text": "Plasma oxidation was measured fluorometrically using two different fluorescent probes: DCFH and BODIPY. DCFH-DA and BODIPY stock solutions were prepared in EtOH and dimethylsulfoxide, respectively, stored under nitrogen at −20° C. and used within two months. The final plasma dilution was 1:5 (v/v).\nIn the experiments using β-carotene, to avoid the filtering effect due to the carotenoid, the oxidation product of BODIPY was also detected at λex=520 and at λem-540 nm. The fluorescence measurements were carried out using a Perkin Elmer spectrofluorometer (model 650-10s) with 1 cm path length fluorescence cuvettes.\nBriefly, β-carotene (dissolved in stabilized THF, 10 mg/ml) or α-tocopherol (4.3 mg/ml in EtOH) were added to plasma to reach a final concentration of 50 μM; the samples were then vortexed for 30 sec and incubated at 37±1° C. for 1 to 6 hr under nitrogen. […] Controls were prepared in the same way using solvent only.\nThe effect of adding the membrane soluble antioxidants, α-tocopherol (in EtOH) and β-carotene (in THF), pre-incubated with plasma, was studied. […] Values are mean±SD of five independent experiments. Statistical analysis: one-way ANOVA with Tukey's post test; *p<0.05, **p<0.01.\nTo monitor the aqueous phase oxidizability, AAPH was used as a hydrophilic radical generator and coupled to DCFH was used as the indicator."}, "[3]": {"test_system": "aqueous plasma compartment oxidation", "assay": "Aqueous plasma compartment oxidation, DCFH to DCF fluorescence", "set-up": "species or system human", "description": "The final plasma dilution was 1:5 (v/v).\nDCFH was prepared from DCFH-DA by basic hydrolysis. Briefly 500 μl of DCFH-DA stock solution (1 mM) was mixed with 2 ml of NaOH (0.01 N at 4° C.) for 20 minutes while protected from the light. The mixture was then neutralized with 2 ml of HCl (0.01 N), diluted with PBS to a final concentration of 10 μM and stored in ice for no longer than 8 hrs (working solution); an aliquot of 100 μl was added to 200 μl of plasma and then diluted to a final volume of 1 ml with PBS. […] The excitation wavelength (λex) was set at […] (slit 5 nm) and emission (λem) at 520 nm (slit 5 nm).\nValues are mean±SD of five independent experiments. […] Samples were incubated at 37° C. in the dark and at fixed times the DCF content measured by fluorescence (λex=502 nm, λem=520 nm)."}}, "note": "Where “and” joins values, the source holds several entries; their conditions need not be identical. Equal values may be shown once."}
{"compound": "CC(C)(N=NC(C)(C)C(=N)N)C(=N)N.Cl.Cl", "note": "[AAPH, 2,2′-azobis (2-amidinopropane) dihydrochloride]", "values": [{"measurement": "rate of free radical generation Ri", "setting": "[1]", "result": "1.36×10^−6 [AAPH] mol/liter/sec"}, {"measurement": "delay of BODIPY oxidation in plasma", "setting": "[2]", "result": 180, "unit": "min"}, {"measurement": "start of propagation phase of DCFH oxidation in plasma", "setting": "[3]; 10 mM AAPH", "result": 180, "unit": "min"}, {"measurement": "start of propagation phase / lag phase of DCFH oxidation in plasma", "setting": "[3]; 20 mM AAPH, dihydrochloride", "result": "90 min and 120 min"}]}
